# “Also recorded” adds a separate entry of the source. Peptide text beside a SMILES is read from it.
# Columns and labels:
# Format in all cases: physicochemical
# [1] = Aggregation behaviour of tripeptides dissolved in water at pH 7; settings: for solubility: water / D2O; for aggregation behavior on dissolving in water: water at pH 7, 30 mmol/L
# Description: Tripeptides were dissolved in water by sonication and vortexing, followed by bringing the pH to 7.2±0.1 by dropwise addition of 0.25 M NaOH solution to a final concentration of 30 mmol/L. These were diluted to 10 mmol/L for DLS and NMR experiments. Note that the KYF gel could also be prepared by direct dissolution into a 0.1 M phosphate buffer at pH 7. Characterization of the resulting samples took places at least 24 hours after sample preparation. Samples for FTIR and NMR analysis were prepared using D2O (99.9% D) and NaOD solution instead of H2O and NaOH.
# The bottom half of Table 2 contains the tripeptides that were selected for synthesis and experimental characterization. The selection was made to include a wide range of AP and APH scores, including PFF (#1 from AP score) and KFD (#1 from APH score) and peptides that adhere to one or more of our design rules formulated above, such as KYF. […] These peptides were dissolved in water at pH 7 and their aggregation behavior was studied in order to test the predictive value of our method.
# [2] = Diffusion Ordered NMR spectroscopy (DOSY); settings: 10 mM in D2O, pH 7, 298 K
# From the text: DOSY spectra were acquired at 600 MHz using a Bruker Avance 600 spectrometer using the Bruker microprogram dstebpgp3sat at 298 K. The eddy current delay (Te) was set to 5 ms. The diffusion time was adjusted to 100 ms. […] The pulse gradient was increased from 2 to 95% of the maximum gradient strength using a linear ramp 16 k data points in the F2 dimension (20 ppm) and 16 data points in the F1 dimension were collected. […] This method is able to determine the diffusion coefficient D of supramolecular aggregates and therefore their relative size, as described by the Stokes-Einstein equation.^43,44 Diffusion constants for all the studied tripeptides can be found in Table 2. […] For the remaining peptides, DOSY results are in good agreement with the predicted aggregation propensity at 50 ns.
# [3] = Dynamic light scattering (DLS); settings: 10 mM at pH 7, 25° C.
# Description: The dynamic light scattering (DLS) measurements were carried out on 10 mmol/L peptide solutions (i.e. below the critical gelation concentration) by using a 3 DDLS spectrophotometer (LS instruments, Fribourg, Switzerland) using vertically polarized He—Ne laser light (25 mW with wavelength of 632.8 nm) with an avalanche photodiode detector at an angle of 90° at 25° C. Intensity autocorrelation functions were recorded and analyzed by means of the cumulant method in order to determine the intensity weighted diffusion coefficients D and the average hydrodynamic radius Rh by using the Stokes-Einstein equation, Rh=kBT/6πηD, where kB is the Boltzmann constant, T is the absolute temperature and η is the solvent viscosity at the given temperature.
# To further confirm the presence (and size) of the peptide aggregates formed, dynamic light scattering (DLS) experiments were performed on the KYF gel, PFF suspension and KFD and GGG solutions.
# [4] = FTIR spectroscopy, amide I region; settings: 30 mM in D2O at pH 7
# Description: Samples were contained in a standard IR transmission cell (Harrick Scientific) between two 2 mm CaF2 windows, separated by a polytetrafluoroethylene (PFTE) spacer of 50 μm thickness. Spectra were recorded on a Bruker Vertex 70 spectrometer by averaging 25 scans at a spectral resolution of 1 cm^−1. Spectra were corrected for absorption from a phosphate buffer blank sample and absorptions from trifluoroacetic acid (TFA).
# The secondary structure of the peptides can be probed by infrared (IR) spectroscopy.^45,46 When aggregation takes place via intermolecular hydrogen bonding of the amide groups, the 1650-1655 cm^−1 absorption observed for free peptides in solution typically narrows and shifts to lower frequency, while the 1595 cm^−1 peak, assigned to carboxylate groups, broadens or decreases in intensity due to protonation or salt bridge formation. […] Note that small absorption maxima in the 1670-1685 cm^−1 region are assigned to residual trifluoro-acetic acid absorption and the 1570-1580 cm^−1 band for KFD is assigned to the aspartic acid side chain carboxylate group.
# For KYF, a dramatic change in the amide region was noticed upon gelation with intense IR absorption peaks at 1621 and 1649 cm^−1 for the amide groups and 1568 cm^−1 for salt-bridged carboxylate groups.
# [5] = TEM of tripeptide samples; settings: samples at pH 7
# Description: Carbon-coated copper grids (200 mesh) were glow discharged in air for 30 s. The support film was touched onto the gel surface for 3 s and blotted down using filter paper. Negative stain ([…], 1% aqueous methylamine vanadate (Nanovan; Nanoprobes) was applied and the mixture was blotted again using filter paper to remove excess. The dried specimens were then imaged using a LEO 912 energy filtering transmission electron microscope operating at 120 kV fitted with 14 bit/2 K Proscan CCD camera
# [6] = pH dependence of the gelation of KYF
# Description: We investigated the effects of pH on the gelation of the tripeptide KYF in aqueous solvent. […] The alteration of the pH will affect the protonation state of the ionisable groups on KYF i.e., N and C termini and the lysine side groups.
# pH measurements were carried out ranging from pH 5 to 8. At each pH measurement an image was taken to show the gelation behaviour. The pH was altered using 0.5M NaOH which is added drop wise into the vial, vortexed to ensure a complete mix then the pH is measured until a stable value is obtained.
# Initially, the peptide sample is dissolve in water and the pH is recorded. At this point the pH is below the pKa of the C-terminus therefore the terminal acid is protonated and gelation should not occur, which is what was observed.
solubility [1],aggregation behavior on dissolving in water [1],diffusion constant (DOSY) [2],average hydrodynamic radius / relative size of the aggregates (DLS) [3],SMILES,secondary structure from amide I IR absorption [4],nanostructure seen by TEM [5],other results
poor solubility,suspensions,,,N[C@@H](Cc1ccccc1)C(=O)N[C@@H](Cc1c[nH]cn1)C(=O)N[C@@H](Cc1ccccc1)C(=O)O [FHF] (H-Phe-His-Phe-OH),,,
,translucent self-supporting hydrogel,lowest diffusion constant,0.26 μm,NCCCC[C@H](N)C(=O)N[C@@H](Cc1ccc(O)cc1)C(=O)N[C@@H](Cc1ccccc1)C(=O)O [KYF] (H-Lys-Tyr-Phe-OH),well-ordered peptide nanostructure,entangled fibrous network,"pH of critical gelation ([6]; aqueous, pH raised with 0.5M NaOH): 6.9-7.05; gelation behaviour ([6]; pH 2.21 to 6.7, aqueous): remained as a clear solution; gelation behaviour ([6]; pH 6.9, aqueous): weak gel; gelation behaviour ([6]; pH 7.05, aqueous): self-supporting hydrogel; gelation behaviour ([6]; pH 7.05 until 7.98, aqueous): stronger gels"
insoluble in water,,,,N[C@@H](CO)C(=O)N[C@@H](Cc1ccc(O)cc1)C(=O)N[C@@H](Cc1ccccc1)C(=O)O [SYF] (H-Ser-Tyr-Phe-OH),,,

# Continued, compound first:
SMILES,solubility [1],aggregation behavior on dissolving in water [1],diffusion constant (DOSY) [2],average hydrodynamic radius / relative size of the aggregates (DLS) [3],secondary structure from amide I IR absorption [4],nanostructure seen by TEM [5],other results
CC[C@H](C)[C@H](NC(=O)[C@H](Cc1ccc(O)cc1)NC(=O)[C@@H](N)Cc1ccccc1)C(=O)O [FYI] (H-Phe-Tyr-Ile-OH),poor solubility,precipitated,,,,,
"NCC(=O)NCC(=O)NCC(=O)O [GGG, reference compound] (H-Gly-Gly-Gly-OH)",,,highest diffusion constant,0.10 μm,,,
CC[C@H](C)[C@H](N)C(=O)N[C@@H](Cc1ccc(O)cc1)C(=O)N[C@@H](Cc1ccccc1)C(=O)O [IYF] (H-Ile-Tyr-Phe-OH),poor solubility,precipitated,,,,,
NCCCC[C@H](N)C(=O)N[C@@H](Cc1ccccc1)C(=O)N[C@@H](CC(=O)O)C(=O)O [KFD] (H-Lys-Phe-Asp-OH),,,intermediate diffusion rate,0.13 μm,no extended secondary structure formation,strongly curved fibers together with more amorphous regions,
O=C(O)[C@H](Cc1ccccc1)NC(=O)[C@H](Cc1ccccc1)NC(=O)[C@@H]1CCCN1 [PFF] (H-Pro-Phe-Phe-OH),poor solubility; also recorded: low solubility,suspensions,,0.70 μm,β-sheet like arrangement of the amide groups,short crystalline nanostructures with a large aspect ratio,
N=C(N)NCCC[C@H](N)C(=O)N[C@@H](Cc1ccc(O)cc1)C(=O)N[C@@H](Cc1ccccc1)C(=O)O [RYF] (H-Arg-Tyr-Phe-OH),,did not give a gel,,,,,

# Source: patent publication US10646538B2, “Self-assembling tripeptides” (ENDO Biologics, Inc., priority 2014, dated 2020)
